Laboratory results from patent US4808711A, “Cephalosporin derivatives” (Sankei Pharmaceutical Co., Ltd., priority 1985, dated 1989).
Where two headings read alike, the source gives them in different places.

Columns and labels:
Type in all cases: cell-based
P. rettgeri ATCC14505 = assay: MIC, P. rettgeri ATCC14505
Description: (§1) The minimum inhibition concentrations (MIC) of the compounds obtained by the present invention were measured according to the standard method of Japanese Chemotherapy Association.

S. dysenteriae 4379-60 = assay: MIC, S. dysenteriae 4379-60
Description: as §1

P. putida ATCC12633 = assay: MIC, P. putida ATCC12633; details: Pseudomonas putida
Description: as §1

[1] = tested on: S. flexneri 2a CDC 4807-62; assay: MIC, S. flexneri 2a CDC 4807-62
Description: as §1

S. aureus TASAKI = assay: MIC, S. aureus TASAKI; details: Staphylococcus aureus
Description: as §1

P. mirabilis IFO3849 = assay: MIC, P. mirabilis IFO3849
Description: as §1

E. coli NIHJ JC-2 = assay: MIC, E. coli NIHJ JC-2
Description: as §1

P. vulgaris ATCC6398 = assay: MIC, P. vulgaris ATCC6398
Description: as §1

B. subtilis ATCC6633 = assay: MIC, B. subtilis ATCC6633
Description: as §1

S. typhimurium IFO 12529 = assay: MIC, S. typhimurium IFO 12529
Description: as §1

P. fluorescens ATCC13525 = assay: MIC, P. fluorescens ATCC13525
Description: as §1

S. anatum 677-69 = assay: MIC, S. anatum 677-69
Description: as §1

S. aureus Smith = assay: MIC, S. aureus Smith
Description: as §1

P. maltophilia ATCC13637 = assay: MIC, P. maltophilia ATCC13637; details: Stenotrophomonas maltophilia
Description: as §1

S. marcescens IFO12648 = assay: MIC, S. marcescens IFO12648
Description: as §1

S. paratyphi A 144-12-93 = assay: MIC, S. paratyphi A 144-12-93
Description: as §1

S. newport 563 = assay: MIC, S. newport 563
Description: as §1

S. paratyphi B = assay: MIC, S. paratyphi B
Description: as §1

P. vulgaris ATCC6380 = assay: MIC, P. vulgaris ATCC6380
Description: as §1

S. epidermidis ATCC14990 = assay: MIC, S. epidermidis ATCC14990
Description: as §1

S. boyadii CDC 2064-59 = assay: MIC, S. boyadii CDC 2064-59
Description: as §1

S. aureus ATCC25923 = assay: MIC, S. aureus ATCC25923; details: Staphylococcus aureus
Description: as §1

P. aeruginosa ATCC9721 = assay: MIC, P. aeruginosa ATCC9721; details: Pseudomonas aeruginosa
Description: as §1

P. cepacia ATCC25416 = assay: MIC, P. cepacia ATCC25416
Description: as §1

S. typhimurium ATCC13311 = assay: MIC, S. typhimurium ATCC13311
Description: as §1

S. typhi 1099-77 = assay: MIC, S. typhi 1099-77
Description: as §1

E. cloacae ATCC13047 = assay: MIC, E. cloacae ATCC13047; details: Enterobacter cloacae
Description: as §1

E. coli ATCC25922 = assay: MIC, E. coli ATCC25922
Description: as §1

C. freundii IFO12681 = assay: MIC, C. freundii IFO12681
Description: as §1

S. sonnei SH72-415 = assay: MIC, S. sonnei SH72-415
Description: as §1

K. pneumoniae ATCC27736 = assay: MIC, K. pneumoniae ATCC27736
Description: as §1

S. aureus 209P JC-1 = assay: MIC, S. aureus 209P JC-1
Description: as §1

S. flexneri Y NCTC 9730 = assay: MIC, S. flexneri Y NCTC 9730
Description: as §1

S. paratyphi C 33-76 = assay: MIC, S. paratyphi C 33-76
Description: as §1

S. faecalis IFO3826 = assay: MIC, S. faecalis IFO3826
Description: as §1

[2] = Providencia rettgeri, read-out: MIC
[3] = Shigella flexneri, read-out: MIC
[4] = S. aureus TASAKI, standard method of Japanese Chemotherapy Association, read-out: MIC
[5] = Proteus mirabilis, read-out: MIC
[6] = Escherichia coli, NIHJJC2, read-out: MIC
[7] = Proteus vulgaris, read-out: MIC
[8] = Bacillus subtilis, B. subtilis ATCC6633, read-out: MIC
[9] = Salmonella enterica, read-out: MIC
[10] = Salmonella enterica, 67769, read-out: MIC
[11] = Staphylococcus aureus, read-out: MIC
[12] = Serratia marcescens, read-out: MIC
[13] = Staphylococcus epidermidis, read-out: MIC
[14] = S. aureus ATCC25923, read-out: MIC
[15] = P. aeruginosa ATCC9721, read-out: MIC
[16] = Burkholderia cepacia, read-out: MIC
[17] = Escherichia coli, read-out: MIC
[18] = Citrobacter freundii, read-out: MIC
[19] = Shigella sonnei, SH72415, read-out: MIC
[20] = Klebsiella pneumoniae, read-out: MIC
[21] = Staphylococcus aureus, S. aureus 209P JC-1, read-out: MIC
[22] = Shigella flexneri, NCTC9730, read-out: MIC
[23] = Enterococcus faecalis, read-out: MIC

Measured: MIC

Cn1nnnc1SCC1=C(C(=O)O)N2C(=O)C(NC(=O)C(=NOCC(=O)NNC(=O)c3ccc(O)c(O)c3)c3csc(N)n3)C2SC1 (centres unmarked) [Example 62]
0.2 µg/mL: E. coli ATCC25922; [17]
3.13 µg/mL: S. aureus Smith; [11] | E. cloacae ATCC13047
0.012 µg/mL: S. paratyphi B; Salmonella enterica, PARATYPHI | K. pneumoniae ATCC27736; [20] | S. paratyphi C 33-76; Salmonella enterica, PARATYPHI
0.78 µg/mL: E. coli NIHJ JC-2; [6] | P. cepacia ATCC25416; [16] | S. flexneri Y NCTC 9730; [22]
0.39 µg/mL: P. mirabilis IFO3849; [5] | B. subtilis ATCC6633; [8] | S. marcescens IFO12648; [12] | P. vulgaris ATCC6380; [7] | S. epidermidis ATCC14990; [13] | S. boyadii CDC 2064-59 | S. aureus ATCC25923; [14] | C. freundii IFO12681; [18] | S. aureus 209P JC-1; [21]
12.5 µg/mL: P. fluorescens ATCC13525; Pseudomonas fluorescens, read-out: MIC
0.025 µg/mL: S. dysenteriae 4379-60; Shigella dysenteriae, 437960 | S. anatum 677-69; [10] | S. paratyphi A 144-12-93; Salmonella enterica, PARATYPHI | S. typhimurium ATCC13311; [9]
0.1 µg/mL: [1]; [3] | P. aeruginosa ATCC9721; [15]
0.05 µg/mL: P. vulgaris ATCC6398; [7] | S. typhimurium IFO 12529; [9] | S. newport 563; [9] | S. sonnei SH72-415; [19]
≤ 0.006 µg/mL: S. typhi 1099-77; Salmonella enterica, TYPHI
1.56 µg/mL: P. rettgeri ATCC14505; [2] | P. putida ATCC12633 | S. aureus TASAKI; [4] | P. maltophilia ATCC13637
> 100 µg/mL: S. faecalis IFO3826; [23]

cephazoline [CAZ]
6.25 µg/mL: B. subtilis ATCC6633; B. subtilis ATCC6633 | S. aureus Smith | S. epidermidis ATCC14990 | P. cepacia ATCC25416
1.56 µg/mL: S. paratyphi A 144-12-93; S. paratyphi A 144-12-93
0.78 µg/mL: E. coli NIHJ JC-2 | S. typhimurium IFO 12529 | S. anatum 677-69 | S. newport 563 | S. paratyphi B; S. paratyphi B | K. pneumoniae ATCC27736 | S. aureus 209P JC-1; S. aureus 209P JC-1
0.2 µg/mL: S. dysenteriae 4379-60; S. dysenteriae 4379-60 | [1] | P. mirabilis IFO3849 | P. vulgaris ATCC6380
0.1 µg/mL: P. vulgaris ATCC6398 | S. paratyphi C 33-76; S. paratyphi C 33-76
0.39 µg/mL: P. rettgeri ATCC14505 | S. marcescens IFO12648 | S. typhimurium ATCC13311 | S. typhi 1099-77; S. typhi 1099-77 | E. coli ATCC25922 | C. freundii IFO12681 | S. sonnei SH72-415 | S. flexneri Y NCTC 9730
3.13 µg/mL: P. fluorescens ATCC13525
> 100 µg/mL: S. faecalis IFO3826

CO[C@@]1(NC(=O)C(C(=O)O)c2ccc(O)cc2)C(=O)N2C(C(=O)O)=C(CSc3nnnn3C)CO[C@@H]21 (some centres unmarked) [LMOX, latamoxiceph]
0.05 µg/mL: S. dysenteriae 4379-60; Shigella dysenteriae, 437960 | S. paratyphi B; Salmonella enterica, PARATYPHI | S. typhimurium ATCC13311; [9] | S. typhi 1099-77; Salmonella enterica, TYPHI | K. pneumoniae ATCC27736; [20]
3.13 µg/mL: S. aureus TASAKI | B. subtilis ATCC6633; Bacillus subtilis, ATCC6633 | S. boyadii CDC 2064-59 | S. aureus ATCC25923; ATCC25923 | P. aeruginosa ATCC9721; ATCC9721 | S. aureus 209P JC-1; Staphylococcus aureus, 209P | S. flexneri Y NCTC 9730; [22]
0.025 µg/mL: S. paratyphi C 33-76; Salmonella enterica, PARATYPHI
> 100 µg/mL: S. faecalis IFO3826; [23]
0.1 µg/mL: P. rettgeri ATCC14505; [2] | [1]; [3] | P. mirabilis IFO3849; [5] | S. typhimurium IFO 12529; [9] | S. anatum 677-69; [10] | S. newport 563; [9] | C. freundii IFO12681; [18] | S. sonnei SH72-415; [19]
0.2 µg/mL: E. coli NIHJ JC-2; [6] | P. vulgaris ATCC6398; [7] | S. marcescens IFO12648; [12] | S. paratyphi A 144-12-93; Salmonella enterica, PARATYPHI | P. vulgaris ATCC6380; [7] | E. coli ATCC25922; [17]
0.78 µg/mL: E. cloacae ATCC13047
25 µg/mL: P. putida ATCC12633 | P. maltophilia ATCC13637
6.25 µg/mL: S. aureus Smith; [11] | S. epidermidis ATCC14990; [13] | P. cepacia ATCC25416; [16]

CN(C)CCn1nnnc1SCC1=C(C(=O)O)N2C(=O)[C@@H](NC(=O)Cc3csc(N)n3)[C@H]2SC1 [CTM, cephothiam]
6.25 µg/mL: S. marcescens IFO12648; [12]
0.39 µg/mL: S. aureus TASAKI; [4] | B. subtilis ATCC6633; [8] | S. aureus Smith; [11] | S. paratyphi A 144-12-93; Salmonella enterica, PARATYPHI | S. newport 563; [9] | S. epidermidis ATCC14990; [13] | S. boyadii CDC 2064-59 | S. aureus ATCC25923; [14] | P. cepacia ATCC25416; [16]
0.2 µg/mL: E. coli NIHJ JC-2; [6] | S. typhimurium IFO 12529; [9] | S. anatum 677-69; [10] | S. paratyphi B; Salmonella enterica, PARATYPHI | E. coli ATCC25922; [17] | S. sonnei SH72-415; [19] | S. aureus 209P JC-1; [21]
> 100 µg/mL: P. putida ATCC12633 | P. vulgaris ATCC6398; [7] | P. maltophilia ATCC13637 | P. vulgaris ATCC6380; [7] | P. aeruginosa ATCC9721; [15] | S. faecalis IFO3826; [23]
0.78 µg/mL: P. mirabilis IFO3849; [5] | S. flexneri Y NCTC 9730; [22]
0.1 µg/mL: [1]; [3] | S. typhimurium ATCC13311; [9] | S. typhi 1099-77; Salmonella enterica, TYPHI | K. pneumoniae ATCC27736; [20]
50 µg/mL: E. cloacae ATCC13047
3.13 µg/mL: P. rettgeri ATCC14505; [2] | C. freundii IFO12681; [18]
0.05 µg/mL: S. dysenteriae 4379-60; Shigella dysenteriae, 437960 | S. paratyphi C 33-76; Salmonella enterica, PARATYPHI
